{
  "source": "patent US12606813B2",
  "about": "“Compositions and methods for enzyme immobilization” (priority 2017, dated 2026)",
  "format_in_all_cases": "biochemical",
  "key": {"[1]": {"test_system": "Brk-lipase: Bacillus sp. 42 thermostable organic solvent tolerant lipase (encoding nucleic acid SEQ ID NO: 15) fused to BrkA autotransporter, on the surface of …", "assay": "Lipase activity, continuous spectrophotometric rate determination at 400 nm, Michaelis-Menten fit, Brk-lipase on minicell surface", "settings": "4-nitrophenyl-butyrate 0-5 mM, 37° C., pH 7.2; Cells/Well: 17,706,667; best-fit value", "description": "(§1) Kinetic analysis of the reaction was analyzed by continuous spectrophotometric rate determination at 400 nm.\nFor a bacterial surface display system named as BrkAutoDisplay based on the structure of autotransporter BrkA (Bordetella serum-resistance killing protein A) was used to host an exogenous gene encoding lipase. To construct a recombinant Brk-lipase expression vector, Brk autotransporter gene was first cloned into the pGEX-6P-1 plasmid. Using BamHI and EcoRI restriction sites, the lipase-encoding gene was ligated with the Brk autotransporter gene, as illustrated in FIG. 6A. […]\n(§2) In order to further confirm presence of the functional lipase-fusion protein in both the elution fraction from the protein purification and the surface of the cell, a lipase activity assay was designed using the lipase substrate, 4-nitrophenyl-butyrate. […] The pathlength, 0.625 cm, was calculated from the known volume of the well (200 uL) and the well's surface area (0.32 cm^2).\n(§3) For the enzymatic assay, required are the reaction buffer (100 mM Sodium Phosphate Buffer solution pH 7.2, 0.5% (v/v) Triton-X 100, 150 mM Sodium Chloride), the enzyme/cell solution in 1×PBS, and the substrate solution which is varying concentrations of 4-nitrophenyl-butyrate in acetonitrile. […] Vmax and Km were calculated using GraphPad Prism Michaelis-Menten fitting parameters. […]"}, "[2]": {"test_system": "AIDA-lipase (pAIDA-lipase): Bacillus sp. 42 thermostable organic solvent tolerant lipase (encoding nucleic acid SEQ ID NO: 15) fused to AIDA-1 autotransporter …", "assay": "Lipase activity, continuous spectrophotometric rate determination at 400 nm, Michaelis-Menten fit, AIDA-lipase on minicell surface", "settings": "4-nitrophenyl-butyrate 0-5 mM, 37° C., pH 7.2; Cells/Well: 99,946,667; best-fit value", "description": "as §1\nThis construction was conducted with primarily designed pAIDA-1 plasmid (from Addgene, Cambridge, MA) in which the lipase-encoding gene was ligated into the passenger domain within the AIDA-I autotransporter using KpnI and SacI sites as illustrated in FIG. 4A. The tags existed on the pAIDA-1 plasmid prior were used for further analysis on lipase expression. After the ligation is completed, the 6× His tag and HRV3C site are located at N-terminus of the lipase-encoding gene and the Myc tag and TEV site are placed at C-terminus of the lipase-encoding gene. The 6× His tag, which is the 5′ end of the surface-expressed fusion lipase protein was used for Cobalt immobilized metal affinity chromatography (IMAC) and for immunofluorescent staining with THE His Tag antibody [FITC] from Genscript. […]\nas §2, with “cm^2). […]” for “cm^2).”"}, "[3]": {"test_system": "InaK-lipase: Bacillus sp. 42 thermostable organic solvent tolerant lipase (encoding nucleic acid SEQ ID NO: 15) fused to Ice Nucleation Protein InaK, on the …", "assay": "Lipase activity, continuous spectrophotometric rate determination at 400 nm, Michaelis-Menten fit, InaK-lipase on minicell surface", "settings": "4-nitrophenyl-butyrate 0-5 mM, 37° C., pH 7.2; Cells/Well: 107,840,000; best-fit value", "description": "as §1\nAnother bacterial surface display protein, Ice Nucleation Protein K (InaK) was used for expressing recombinant lipase proteins fused to anchoring linker protein (motif) that direct the incorporated fusion protein on the surface of minicells. Like BrkAutoDisplay, polynucleotide encoding Inak transmembrane protein and the lipase-encoding gene were inserted into the pGEX-6P-1 vector for producing the bacterial surface display lipase protein as illustrated in FIG. 7A. […]\nas §2\nas §3, with “Activity was determined from a Michaelis-Menten fit of the” for “Vmax and Km were”, “rates resulting from varying the substrate concentration according to the Table 10.” for “using GraphPad Prism Michaelis-Menten fitting parameters.”"}},
  "data": [
    {"molecule": "CCCC(=O)Oc1ccc([N+](=O)[O-])cc1", "note": "[4-nitrophenyl-butyrate]", "values": [
      {"measurement": "Km", "setting": "[1]", "value": 221, "unit": "µM"},
      {"measurement": "Vmax", "setting": "[1]", "value": 0.04453, "unit": "µM/s"},
      {"measurement": "Km", "setting": "[2]", "value": 180, "unit": "µM"},
      {"measurement": "Vmax", "setting": "[2]", "value": 0.08174, "unit": "µM/s"},
      {"measurement": "Km", "setting": "[3]", "value": 302, "unit": "µM"},
      {"measurement": "Vmax", "setting": "[3]", "value": 0.06354, "unit": "µM/s"}
    ]}
  ]
}
